Reference: the NIST ThermoML archive (doi:10.1016/j.jct.2013.01.005)
Numbers after ± are expanded uncertainties.

Experiment: activity coefficient (dimensionless); of the first substance listed, at infinite dilution; xn = mol fraction of the nth substance listed
Conditions: 101 kPa, Liquid, Chromatography, x1 = 0

| Compound | activity coefficient (308.15 K) | activity coefficient (318.15 K) | activity coefficient (328.15 K) | activity coefficient (338.15 K) | activity coefficient (348.15 K) | activity coefficient (358.15 K) |
| --- | --- | --- | --- | --- | --- | --- |
| CC(C)CC(C)(C)C [2,2,4-trimethylpentane] + CCCCCC[N+]1(C)CCCCC1.O=S(=O)([N-]S(=O)(=O)C(F)(F)F)C(F)(F)F | 9.75 ± 0.67 | 9.59 ± 0.65 | 9.2 ± 0.63 | 8.95 ± 0.61 | 8.59 ± 0.59 | 8.43 ± 0.58 |
| C1=CCCCC1 [cyclohexene] + CCCCCC[N+]1(C)CCCCC1.O=S(=O)([N-]S(=O)(=O)C(F)(F)F)C(F)(F)F | 3.07 ± 0.21 | 3 ± 0.2 | 2.94 ± 0.2 | 2.88 ± 0.2 | 2.81 ± 0.19 | 2.75 ± 0.19 |
| C#CCCC [1-pentyne] + CCCCC[N+]1(C)CCCCC1.O=S(=O)([N-]S(=O)(=O)C(F)(F)F)C(F)(F)F | 1.54 ± 0.1 | 1.59 ± 0.11 | 1.62 ± 0.11 | 1.64 ± 0.11 | 1.69 ± 0.11 | 1.73 ± 0.12 |
| CCC(C)(C)C [2,2-dimethylbutane] + CCCCCC[N+]1(C)CCCCC1.O=S(=O)([N-]S(=O)(=O)C(F)(F)F)C(F)(F)F | 6.67 ± 0.45 | 6.44 ± 0.44 | 6.12 ± 0.42 | 6 ± 0.41 | 5.84 ± 0.4 | 5.65 ± 0.39 |
| C1CCOC1 [tetrahydrofuran] + CCCCCC[N+]1(C)CCCCC1.O=S(=O)([N-]S(=O)(=O)C(F)(F)F)C(F)(F)F | 0.563 ± 0.04 | 0.579 ± 0.041 | 0.594 ± 0.042 | 0.612 ± 0.043 | 0.627 ± 0.043 | 0.635 ± 0.044 |
| C1CCCC1 [cyclopentane] + CCCCCC[N+]1(C)CCCCC1.O=S(=O)([N-]S(=O)(=O)C(F)(F)F)C(F)(F)F | 3.72 ± 0.25 | 3.59 ± 0.24 | 3.43 ± 0.23 | 3.34 ± 0.23 | 3.24 ± 0.22 | 3.12 ± 0.21 |
| CCCCCCCC [octane] + CCCCCC[N+]1(C)CCCCC1.O=S(=O)([N-]S(=O)(=O)C(F)(F)F)C(F)(F)F | 12.9 ± 0.9 | 12.7 ± 0.9 | 12.1 ± 0.8 | 11.8 ± 0.8 | 11.3 ± 0.8 | 10.9 ± 0.7 |
| CCC(C)(C)OC [2-methoxy-2-methylbutane] + CCCCCC[N+]1(C)CCCCC1.O=S(=O)([N-]S(=O)(=O)C(F)(F)F)C(F)(F)F | 2.11 ± 0.14 | 2.14 ± 0.15 | 2.18 ± 0.15 | 2.2 ± 0.15 | 2.22 ± 0.15 | 2.25 ± 0.15 |
| C=CCCCCC [1-heptene] + CCCCCC[N+]1(C)CCCCC1.O=S(=O)([N-]S(=O)(=O)C(F)(F)F)C(F)(F)F | 5.89 ± 0.4 | 5.81 ± 0.4 | 5.69 ± 0.39 | 5.59 ± 0.38 | 5.45 ± 0.37 | 5.35 ± 0.36 |
| C1CCCCC1 [cyclohexane] + CCCCC[N+]1(C)CCCCC1.O=S(=O)([N-]S(=O)(=O)C(F)(F)F)C(F)(F)F | 6.4 ± 0.44 | 5.95 ± 0.41 | 5.64 ± 0.38 | 5.42 ± 0.37 | 5.13 ± 0.35 | 4.99 ± 0.34 |
| CCCCO [butan-1-ol] + CCCCC[N+]1(C)CCCCC1.O=S(=O)([N-]S(=O)(=O)C(F)(F)F)C(F)(F)F | 2.3 ± 0.16 | 2.16 ± 0.15 | 1.98 ± 0.13 | 1.82 ± 0.12 | 1.71 ± 0.11 | 1.57 ± 0.1 |
| C=CCCCCCC [oct-1-ene] + CCCCCC[N+]1(C)CCCCC1.O=S(=O)([N-]S(=O)(=O)C(F)(F)F)C(F)(F)F | 7.72 ± 0.53 | 7.6 ± 0.52 | 7.49 ± 0.51 | 7.37 ± 0.5 | 7.27 ± 0.5 | 7.2 ± 0.49 |
| C#CCCC [1-pentyne] + CCCCCC[N+]1(C)CCCCC1.O=S(=O)([N-]S(=O)(=O)C(F)(F)F)C(F)(F)F | 1.42 ± 0.09 | 1.45 ± 0.1 | 1.48 ± 0.1 | 1.5 ± 0.1 | 1.53 ± 0.1 | 1.54 ± 0.1 |
| C#CCCCCCC [1-octyne] + CCCCCC[N+]1(C)CCCCC1.O=S(=O)([N-]S(=O)(=O)C(F)(F)F)C(F)(F)F | 3.1 ± 0.21 | 3.14 ± 0.21 | 3.19 ± 0.22 | 3.21 ± 0.22 | 3.24 ± 0.22 | 3.26 ± 0.22 |
| C1CCCCCCC1 [cyclooctane] + CCCCCC[N+]1(C)CCCCC1.O=S(=O)([N-]S(=O)(=O)C(F)(F)F)C(F)(F)F | 7.57 ± 0.52 | 7.36 ± 0.5 | 7.15 ± 0.49 | 6.87 ± 0.47 | 6.75 ± 0.46 | 6.53 ± 0.45 |
| CO [methanol] + CCCCC[N+]1(C)CCCCC1.O=S(=O)([N-]S(=O)(=O)C(F)(F)F)C(F)(F)F | 1.45 ± 0.1 | 1.32 ± 0.09 | 1.21 ± 0.08 | 1.12 ± 0.07 | 1.07 ± 0.07 | 1 ± 0.06 |
| CCCCCCCCC [nonane] + CCCCC[N+]1(C)CCCCC1.O=S(=O)([N-]S(=O)(=O)C(F)(F)F)C(F)(F)F | 24.2 ± 1.7 | 22.4 ± 1.5 | 21.1 ± 1.4 | 19.9 ± 1.4 | 19 ± 1.3 | 18 ± 1.2 |
| C=CCCCCCCCC [1-decene] + CCCCCC[N+]1(C)CCCCC1.O=S(=O)([N-]S(=O)(=O)C(F)(F)F)C(F)(F)F | 12.3 ± 0.8 | 12.1 ± 0.8 | 12 ± 0.8 | 11.8 ± 0.8 | 11.7 ± 0.8 | 11.5 ± 0.8 |
| C=CCCCC [hex-1-ene] + CCCCCC[N+]1(C)CCCCC1.O=S(=O)([N-]S(=O)(=O)C(F)(F)F)C(F)(F)F | 4.53 ± 0.31 | 4.45 ± 0.3 | 4.34 ± 0.3 | 4.28 ± 0.29 | 4.15 ± 0.28 | 4.06 ± 0.28 |
| CCCCCC [hexane] + CCCCCC[N+]1(C)CCCCC1.O=S(=O)([N-]S(=O)(=O)C(F)(F)F)C(F)(F)F | 7.67 ± 0.52 | 7.4 ± 0.5 | 7.07 ± 0.48 | 6.85 ± 0.47 | 6.67 ± 0.45 | 6.37 ± 0.43 |
| C=CCCCCCC [oct-1-ene] + CCCCC[N+]1(C)CCCCC1.O=S(=O)([N-]S(=O)(=O)C(F)(F)F)C(F)(F)F | 9.9 ± 0.68 | 9.65 ± 0.66 | 9.28 ± 0.63 | 8.94 ± 0.61 | 8.77 ± 0.6 | 8.47 ± 0.58 |
| CC(C)CC(C)(C)C [2,2,4-trimethylpentane] + CCCCC[N+]1(C)CCCCC1.O=S(=O)([N-]S(=O)(=O)C(F)(F)F)C(F)(F)F | 13.4 ± 0.9 | 12.5 ± 0.9 | 11.8 ± 0.8 | 11.4 ± 0.8 | 10.9 ± 0.7 | 10.6 ± 0.7 |
| COC(C)(C)C [2-methoxy-2-methylpropane] + CCCCC[N+]1(C)CCCCC1.O=S(=O)([N-]S(=O)(=O)C(F)(F)F)C(F)(F)F | 1.81 ± 0.12 | 1.85 ± 0.12 | 1.86 ± 0.13 | 1.89 ± 0.13 | 1.94 ± 0.13 | 1.98 ± 0.13 |
